Measurements taken from patent US8354414B2, “Substituted bicyclic pyrimidines” (Cephalon, Inc, priority 2006, dated 2013).
Where a name gives a salt, the structure may show the parent alone. Read-outs that look alike come from different tables or passages of the source.

How the values were obtained:
CDK5/GST-p25 = molecular target: T1, CDK5/GST-p25 (Homo sapiens, UniProt Q00535); assay: Inhibition of CDK5/GST-p25 kinase activity (ELISA with time-resolved fluorescence readout); format: biochemical
T1 construct: The final construct, encoding for full-length human CDK5; made in house; host or cells: Sf21 insect cells (baculovirus co-infection)
T1 sequence (Q00535 whole entry): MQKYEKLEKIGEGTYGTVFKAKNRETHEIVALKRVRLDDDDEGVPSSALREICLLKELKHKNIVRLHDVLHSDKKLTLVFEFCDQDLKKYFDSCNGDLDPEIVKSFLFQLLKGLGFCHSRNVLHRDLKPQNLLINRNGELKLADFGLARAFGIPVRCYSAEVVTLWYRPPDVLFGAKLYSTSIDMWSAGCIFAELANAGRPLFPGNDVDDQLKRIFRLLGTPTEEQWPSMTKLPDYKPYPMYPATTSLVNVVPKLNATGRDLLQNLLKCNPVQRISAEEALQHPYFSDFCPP
T1 sequence (Q15078 108-307 partner limits assumed): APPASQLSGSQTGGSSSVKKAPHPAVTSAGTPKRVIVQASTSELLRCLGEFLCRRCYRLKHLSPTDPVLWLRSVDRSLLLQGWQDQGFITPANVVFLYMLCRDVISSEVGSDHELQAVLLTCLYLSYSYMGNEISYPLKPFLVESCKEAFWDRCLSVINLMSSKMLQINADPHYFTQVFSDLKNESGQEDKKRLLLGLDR
Method: Two recombinant baculoviral constructs were created, one encoding for human CDK5 and the other encoding for human p25 with an amino-terminal glutathione-S-transferase (GST) tag. PCR amplification of full-length CDK5 was performed utilizing human brain cDNA as a template and Pfu Turbo polymerase (Strategene). The PCR product from this reaction was subcloned into the baculoviral expression vector pFASTBAC1 (Gibco/BRL). The final construct, encoding for full-length human CDK5 (base pairs 25-903 of GenBank Accession #NM_004935), is 292 amino acids long with a predicted MW of 33.3 kDa.
For p25, the active truncated form of p35, amino acids 108-307 were PCR-amplified from human fetal brain cDNA (Clontech QUICK-Clone cDNA) using the Advantage 2 PCR system (Clontech). The PCR product was subcloned into the baculoviral transfer vector pFBGSTP (an engineered derivative of the baculoviral transfer vector pFASTBAC1). The final baculoviral construct encodes for base pairs 419-1021 of GenBank Accession #NM_003885, with an amino-terminal GST tag. The expressed GST-p25 is 444 amino acids long with a predicted MW of 50.3 kDa.
The CDK5/GST-p25 complex was generated by coexpression. Sf21 cells were cultured in TNM-FHS media at a density of 1.5×10^6 cells/mL and infected with each recombinant virus at MOI values of 5 (for CDK5) and 10 (for GST-p25). The cells were harvested 40 h after infection. For purification, the 100,000×g supernatant solution was used. Expression was confirmed by running samples on SDS-PAGE, followed by immunoblot analysis utilizing antibodies against CDK5 (anti-CDK5 (268-283); Calbiochem #219449) and p35 (Santa Cruz #sc820). The CDK5/GST-p25 complex was purified by glutathione affinity chromatography.
Compounds were tested for their ability to inhibit the kinase activity of recombinant baculoviral CDK5/GST-p25 using an enzyme-linked immunosorbent assay (ELISA) with time-resolved fluorescence (TRF) readout. Briefly, each 384-well FluoroNunc Maxisorp plate (Cat # 460372) plate was coated with 50 μl/well of 50 μg/ml substrate solution (recombinant GST-Rb(773-928)) in Tris-buffered saline (TBS). The CDK5/GST-p25 assay mixture (total volume=50 μl/well) consisting of 20 mM HEPES (pH 7.2), 10 μM ATP, 10 mM MgCl2, 5 mM EGTA, 25 mM β-glycerophosphate, 0.05% BSA, 2.5% DMSO, and various concentrations of test compound were then added to the assay plate. Enzyme (2 ng/ml CDK5/GST-p25) was added and the reaction was allowed to proceed at 37° C. for 20 minutes. Detection of the phosphorylated product was performed by adding 50 μl/well of phospho-Rb (Ser-780) antibody (Cell Signaling # 9307) diluted 1:10,000 in antibody dilution buffer (0.1% BSA in TBST). After 1-hour incubation at 37° C., 50 μl/well of Eu-Nl labelled anti-rabbit antibody (Wallac # AD0105; 1:50,000 in antibody dilution buffer) was added. Incubation at 37° C. then proceeded for 1 hour, followed by addition of 50 μl enhancement solution (Wallac #1244-105). The plate was gently agitated and after a few minutes, the fluorescence of the resulting solution was measured using a Multilabel Reader (Victor2 Model # 1420-018 or Envision Model # 2100). Inhibition data were analyzed using ActivityBase and IC50 curves were generated using XLFit 3.0.5.

His6-GSK-3β = molecular target: T2, His6-GSK-3β (Homo sapiens, UniProt P49841); assay: Inhibition of His6-GSK-3β kinase activity (ELISA-based format, time-resolved fluorescence readout); format: biochemical; conditions: read-out: GSK3β IC50
T2 construct: made in house; host or cells: Sf21 insect cells (baculovirus)
T2 sequence (P49841 2-419): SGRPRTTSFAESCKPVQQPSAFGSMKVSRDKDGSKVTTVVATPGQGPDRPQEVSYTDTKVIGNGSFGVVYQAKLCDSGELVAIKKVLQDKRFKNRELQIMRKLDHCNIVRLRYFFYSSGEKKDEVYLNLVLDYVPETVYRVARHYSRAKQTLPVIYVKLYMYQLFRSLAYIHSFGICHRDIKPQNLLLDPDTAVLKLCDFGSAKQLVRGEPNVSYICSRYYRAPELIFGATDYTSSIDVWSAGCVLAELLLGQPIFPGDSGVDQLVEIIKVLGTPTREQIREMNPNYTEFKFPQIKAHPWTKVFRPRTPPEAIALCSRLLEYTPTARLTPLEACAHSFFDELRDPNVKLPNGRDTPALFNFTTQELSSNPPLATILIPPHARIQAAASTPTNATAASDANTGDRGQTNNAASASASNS
Description: Full-length GSK-3β was amplified from a sequence-verified I.M.A.G.E. EST acquired from Research Genetics (Invitrogen, Clone ID# CSODB003YJ02). The final sequence-verified cDNA contained the coding region for a NH2-terminal tag, which encoded for 6 histidines and then eight vector-encoded amino acids prior to the start of GSK3β, which contained by # 43-1342 of Genbank Accession # NM_002093, encoding amino acids #2-419. The predicted molecular weight of the tagged, 435 amino acid, full-length protein is 48.5 kDa. The major structural element of this protein is the kinase domain, which is from amino acids #56-340. Recombinant baculoviral DNA was prepared by transposition in E. coli (BAC-TO-BAC system: Invitrogen) and the virus generated and amplified in Sf21 insect cells. A suspension culture of Sf21 cells was infected at an MOI of 0.7 and cell density of 1.5×10^6 cells/mL in Excell 420 serum-free media (JRH BioScience) and harvested 65 h after infection. The 100,000×g supernatant solution was used for purification. Expression was confirmed by running samples on SDS-PAGE, followed by immunoblot analysis utilizing both a Penta-HIS antibody (Qiagen #34660) and a GSK-3α/GSK-3β antibody (Calbiochem #368662, data not shown). The His6-tagged protein was purified to in one step by Ni-NTA affinity chromatography.
Inhibitory effects of compounds on baculoviral GSK-3β kinase activity were evaluated using an ELISA-based format in a 384-well FluoroNunc Maxisorp plate (Cat # 460372) with a time-resolved fluorescence readout. Briefly, each plate was coated with 50 μl/well of 20 μg/ml substrate solution (recombinant GST-Rb) in Tris-buffered saline (TBS). The GSK-3β assay mixture (total volume=50 μl/well) consisting of 50 mM HEPES (pH 7.2), 20 μM ATP, 10 mM MgCl2, 5 mM EGTA, 25 mM β-glycerophosphate, 0.05% BSA, 2.5% DMSO, and various concentrations of test compound were then added to the assay plate. Enzyme (200 ng/ml His6-GSK-3β) was then added and the reaction was allowed to proceed at 37° C. for 30 minutes. Detection of the phosphorylated product was performed by adding 50 μl/well of phospho-Rb (Ser-780) antibody (Cell Signaling # 9307) diluted 1:10,000 in antibody dilution buffer (0.1% BSA in TBST). After 1-hour incubation at 37° C., 50 μl/well of Eu-N1 labelled anti-rabbit antibody (Wallac # AD0105; 1:50,000 in antibody dilution buffer) was added. Incubation at 37° C. then proceeded for 1 hour, followed by addition of 50 μl enhancement solution (Wallac #1244-105). The plate was gently agitated and after a few minutes, the fluorescence of the resulting solution was measured using a Multilabel Reader (Victor2 Model # 1420-018 or Envision Model 2100). Inhibition data were analyzed using ActivityBase and IC50 curves were generated using XLFit 3.0.5.

| SMILES | IC50 (CDK5/GST-p25; numeric bounds) [µM] | IC50 (His6-GSK-3β; class symbols) [nM] | IC50 (CDK5/GST-p25; class symbols) [µM] | IC50 (His6-GSK-3β; numeric bounds) [nM] |
| --- | --- | --- | --- | --- |
| O=C1Nc2ccc(Br)cc2C1c1nc(NCc2ccc(Cl)nc2)nc2c1CCC2 (stereo not drawn) [Example 338, 5-Bromo-3-{2-[(6-chloro-pyridin-3-ylmethyl)-amino]-6,7-dihydro-5H-cyclopentapyrimidin-4-yl}-1,3-dihydro-indol-2-one] | > 3 | > 10000 |  |  |
| O=C1Nc2ccc(Cl)cc2C1c1nc(NCc2ccccn2)nc2c1CCC2 (stereo not drawn) [Example 330, 5-Chloro-3-{2-[(pyridin-2-ylmethyl)-amino]-6,7-dihydro-5H-cyclopentapyrimidin-4-yl}-1,3-dihydro-indol-2-one] |  | > 10000 | > 10 |  |
| CNCCNc1nc(C2C(=O)Nc3ccc(Br)cc32)c2cn(C)nc2n1 (stereo not drawn) [Example 360, 5-Bromo-3-[2-methyl-6-(2-methylamino-ethylamino)-2H-pyrazolo[3,4-d]pyrimidin-4-yl]-1,3-dihydro-indol-2-one hydrochloride salt] |  | 300 to 3000 | 0.3 to 3 |  |
| O=C1Nc2ccc(Br)cc2C1c1nc(NCc2cccnc2)nc2c1CCC2 (stereo not drawn) [Example 337, 5-Bromo-3-{2-[(pyridin-3-ylmethyl)-amino]-6,7-dihydro-5H-cyclopentapyrimidin-4-yl}-1,3-dihydro-indol-2-one] |  | 300 to 3000 | 0.3 to 3 |  |
| CCOCCNc1nc2c(c(C3C(=O)Nc4ccc(F)cc43)n1)CCC2 (stereo not drawn) [Example 319, 3-[2-(2-Ethoxy-ethylamino)-6,7-dihydro-5H-cyclopentapyrimidin-4-yl]-5-fluoro-1,3-dihydro-indol-2-one] |  | > 10000 | > 10 |  |
| COCCn1cc2c(C3C(=O)Nc4ccc(Br)cc43)nc(NCCC3CCNCC3)nc2n1 (stereo not drawn) [Example 227, 5-Bromo-3-[2-(2-methoxy-ethyl)-6-(2-piperidin-4-yl-ethylamino)-2H-pyrazolo[3,4-d]pyrimidin-4-yl]-1,3-dihydro-indol-2-one] |  | < 300 | < 0.3 |  |
| CC(C)Cn1cc2c(C3C(=O)Nc4ccc(Cl)cc43)nc(Cl)nc2n1 (stereo not drawn) [Example 273, 5-Chloro-3-(6-chloro-2-isobutyl-2H-pyrazolo [3,4-d]pyrimidin-4-yl)-1,3-dihydro-indol-2-one] |  |  | > 10 | > 3000 |
| N#Cc1ccc2c(c1)C(c1ncnc3nn(C4CCCCC4)cc13)C(=O)N2 (stereo not drawn) [Example 45, 3-(2-Cyclohexyl-2H-pyrazolo [3,4-d]pyrimidin-4-yl)-2-oxo-2,3-dihydro-1H-indole-5-carbonitrile] |  | < 300 | < 0.3 |  |
| CCCn1cc2c(C3C(=O)Nc4ccc(Br)cc43)nc(NCCCNC)nc2n1 (stereo not drawn) [Example 201, 5-Bromo-3-[6-(3-methylamino-propylamino)-2-propyl-2H-pyrazolo [3,4-d]pyrimidin-4-yl]-1,3-dihydro-indol-2-one hydrochloride] |  | < 300 | < 0.3 |  |
| Cn1cc2c(C3C(=O)Nc4ccc(Cl)cc43)ncnc2n1 (stereo not drawn) [Example 83, 5-Chloro-3-(2-methyl-2H-pyrazolo[3,4-d]pyrimidin-4-yl)-1,3-dihydro-indol-2-one] |  | 300 to 3000 | < 0.3 |  |
| CN1CCN(c2ccc(Nc3nc(C4C(=O)Nc5ccc(C#N)cc54)c4cn(C5CCCC5)nc4n3)cn2)CC1 (stereo not drawn) [Example 137, 3-{2-cyclopentyl-6-[6-(4-methyl-piperazin-1-yl)-pyridin-3-yl-amino]-2H-pyrazolo [3,4-d]pyrimidin-4-yl}-2-oxo-2,3-dihydro-1H-indole-5-carbonitrile] |  | < 300 | > 10 |  |
| CNCCCNc1nc(C2C(=O)Nc3ccc(Br)cc32)c2cn(CCOC)nc2n1 (stereo not drawn) [Example 226, 5-Bromo-3-[2-(2-methoxy-ethyl)-6-(3-methylamino-propylamino)-2H-pyrazolo[3,4-d]pyrimdin-4-yl]-1,3-dihydro-indol-2-one] |  | < 300 | < 0.3 |  |
| O=C1Nc2ccc(Cl)cc2C1c1nc(Cl)nc2c1CCC2 (stereo not drawn) [Example 316, 5-Chloro-3-(2-chloro-6,7-dihydro-5H-cyclopentapyrimidin-4-yl)-1,3-dihydro-inodol-2-one] |  | > 10000 | > 10 |  |
| Cn1cc2c(C3C(=O)Nc4ccc(Br)cc43)nc(NCc3ccncc3)nc2n1 (stereo not drawn) [Example 302, 5-Bromo-3-{2-methyl-6-[(pyridin-4-ylmethyl)-amino]-2H-pyrazolo[3,4-d]pyrimidin-4-yl}-1,3-dihydro-indol-2-one] |  | < 300 | < 0.3 |  |
| CCOCCNc1nc2c(c(C3C(=O)Nc4ccc(Cl)cc43)n1)CCC2 (stereo not drawn) [Example 325, 5-Chloro-3-[2-(2-ethoxy-ethylamino)-6,7-dihydro-5H-cyclopentapyrimidin-4-yl]-1,3-dihydro-indol-2-one] |  | > 10000 | > 10 |  |
| N#Cc1ccc2c(c1)C(c1nc(Cl)nc3c1CCC3)C(=O)N2 (stereo not drawn) [Example 317, 3-(2-Chloro-6,7-dihydro-5H-cyclopentapyrimidin-4-yl)-2-oxo-2,3-dihydro-1H-indole-5-carbonitrile] |  | > 10000 | > 10 |  |
| CCOCCn1cc2c(C3C(=O)Nc4ccc(Cl)cc43)nc(NCc3cccnc3)nc2n1 (stereo not drawn) [Example 213, 5-Chloro-3-{2-(2-ethoxy-ethyl)-6[(pyridin-3-ylmethyl)-amino]-2H-pyrazolo[3,4-d]pyrimidin-4-yl}-1,3-dihydro-indol-2-one] |  | < 300 | < 0.3 |  |
| CN(C)CCCNc1nc(C2C(=O)Nc3ccc(C#N)cc32)c2cn(C3CCCC3)nc2n1 (stereo not drawn) [Example 138, 3-[2-cyclopentyl-6-(3-dimethylamino-propylamino)-2H-pyrazolo[3,4-d]pyrimidin-4-yl]-2-oxo-2,3-dihydro-1H-indole-5-carbonitrile] |  | < 300 | 0.3 to 3 |  |
